In brackets after ≈: the same amount, converted by molar mass. Read-outs that look alike come from different tables or passages of the source.
What was measured:
[1] = test system: Acinetobacter calcoaceticus 15473A; test: Minimum inhibitory concentration (agar 2-fold dilution); assay type: cell-based; conditions: A. calcoaceticus 15473A, Muller-Hinton agar, 37° C., 20 hours, read-out: Minimum Inhibitory Concentration
Experimental: (§1) The minimum inhibitory concentration was determined by diluting the test compounds according to 2-fold dilution, suspending them in Muller-Hinton agar medium, inoculating 2 μl of the suspension containing the test strains having 10^7 CFU (Colony Forming Unit) per 1 ml into the medium and then culturing the test strains at 37° C. for 20 hours.

[2] = test system: Citrobacter diversus 2046E; test: as above; assay type: cell-based; conditions: Citrobacter koseri; C. diversus 2046E; Muller-Hinton agar, 37° C., 20 hours; read-out: Minimum Inhibitory Concentration
Experimental: as §1

[3] = test system: Enterobacter cloacae IND + VE 1194E; test: as above; assay type: cell-based; conditions: E. cloacae IND + VE 1194E, Muller-Hinton agar, 37° C., 20 hours, read-out: Minimum Inhibitory Concentration
Experimental: as §1

Enterobacter cloacae P99 = test: as above; assay type: cell-based; conditions: P99, 20 h, read-out: Minimum Inhibitory Concentration
Experimental: as §1

Escherichia coli 10536 = test: as above; assay type: cell-based; conditions: Escherichia coli; E. coli 10536; Muller-Hinton agar, 37° C., 20 hours; read-out: Minimum Inhibitory Concentration
Experimental: as §1

Escherichia coli 3190Y = test: as above; assay type: cell-based; conditions: read-out: Minimum Inhibitory Concentration
Experimental: as §1

Escherichia coli 851E = test: as above; assay type: cell-based; conditions: E. coli 851E, Muller-Hinton agar, 37° C., 20 hours
Experimental: as §1

[4] = test system: Escherichia coli TEM1 1193E; test: as above; assay type: cell-based; conditions: TEM11193E, 20 h, read-out: Minimum Inhibitory Concentration
Experimental: as §1

[5] = test system: Escherichia coli TEM3 3455E; test: as above; assay type: cell-based; conditions: TEM33455E, 20 h, read-out: Minimum Inhibitory Concentration
Experimental: as §1

[6] = test system: Escherichia coli TEM5 3739E; test: as above; assay type: cell-based; conditions: TEM53739E, 20 h, read-out: Minimum Inhibitory Concentration
Experimental: as §1

[7] = test system: Escherichia coli TEM7 3457E; test: as above; assay type: cell-based; conditions: TEM73457E, 20 h, read-out: Minimum Inhibitory Concentration
Experimental: as §1

[8] = test system: Escherichia coli TEM9 2639E; test: as above; assay type: cell-based; conditions: TEM92639E, 20 h, read-out: Minimum Inhibitory Concentration
Experimental: as §1

[9] = test system: Klebsiella aerogenes K1 + 1082E; test: as above; assay type: cell-based; conditions: 20 h, read-out: Minimum Inhibitory Concentration
Experimental: as §1

[10] = test system: Klebsiella aerogenes SHV-1 1976E; test: as above; assay type: cell-based; conditions: SHV11976E, K. aerogenes SHV-1 1976E, Muller-Hinton agar, 37° C., 20 hours
Experimental: as §1

Proteus vulgaris 6059A = test: as above; assay type: cell-based; conditions: P. vulgaris 6059A, Muller-Hinton agar, 37° C., 20 hours, read-out: Minimum Inhibitory Concentration
Experimental: as §1

[11] = test system: Pseudomonas aeruginosa 10145; test: as above; assay type: cell-based; conditions: Pseudomonas aeruginosa; P. aeruginosa 10145; Muller-Hinton agar, 37° C., 20 hours; read-out: Minimum Inhibitory Concentration
Experimental: as §1

[12] = test system: Pseudomonas aeruginosa 1912E; test: as above; assay type: cell-based; conditions: P. aeruginosa 1912E, Muller-Hinton agar, 37° C., 20 hours, read-out: Minimum Inhibitory Concentration
Experimental: as §1

[13] = test system: Pseudomonas aeruginosa 6065; test: as above; assay type: cell-based; conditions: Pseudomonas aeruginosa; P. aeruginosa 6065; Muller-Hinton agar, 37° C., 20 hours; read-out: Minimum Inhibitory Concentration
Experimental: as §1

[14] = test system: Salmonella typhimurium 14028A; test: as above; assay type: cell-based; conditions: Salmonella enterica; S. typhimurium 14028A; Muller-Hinton agar, 37° C., 20 hours; read-out: Minimum Inhibitory Concentration
Experimental: as §1

[15] = test system: Serratia marcescens 1826E; test: as above; assay type: cell-based; conditions: S. marcescens 1826E, Muller-Hinton agar, 37° C., 20 hours, read-out: Minimum Inhibitory Concentration
Experimental: as §1

[16] = test system: Staphylococcus aureus 241; test: as above; assay type: cell-based; conditions: Staphylococcus aureus; S. aureus 241; Muller-Hinton agar, 37° C., 20 hours; read-out: Minimum Inhibitory Concentration
Experimental: as §1

[17] = test system: Staphylococcus aureus 6538P; test: as above; assay type: cell-based; conditions: S. aureus 6538P, Muller-Hinton agar, 37° C., 20 hours, read-out: Minimum Inhibitory Concentration
Experimental: as §1

Staphylococcus aureus 77 = test: as above; assay type: cell-based; conditions: Staphylococcus aureus; S. aureus 77; Muller-Hinton agar, 37° C., 20 hours; read-out: Minimum Inhibitory Concentration
Experimental: as §1

[18] = test system: Staphylococcus aureus epidermidis 887E; test: as above; assay type: cell-based; conditions: S. aureus epidermidis 887E, Muller-Hinton agar, 37° C., 20 hours, read-out: Minimum Inhibitory Concentration
Experimental: as §1

[19] = test system: Staphylococcus aureus giorgio; test: as above; assay type: cell-based; conditions: read-out: Minimum Inhibitory Concentration
Experimental: as §1

[20] = test system: Streptococcus faecalis 29212A; test: as above; assay type: cell-based; conditions: Enterococcus faecalis; S. faecalis 29212A; Muller-Hinton agar, 37° C., 20 hours; read-out: Minimum Inhibitory Concentration
Experimental: as §1

[21] = Pharmacokinetic properties in rats (blood concentration by agar well biological assay); set-up: species or system SD rats (male); conditions: rat, in vivo, iv, 20 mg/kg
Experimental: The pharmacokinetic properties of the compound of the present invention were determined using SD rats (.male.) weighing 230±10 g. Specifically,the test samples were injected into femoral vein in an amount of 20 mg/kg to 4 to 5 test animals. Blood was taken from femoral vein 1, 2.5, 5, 10, 20, 40, 60, 120 and 180 minutes after administration and then subjected to a biological assay using agar well method to measure the blood concentration.

Q: For `Nc1cc[n+](C/C=C/C2=C(C(=O)[O-])N3C(=O)[C@@H](NC(=O)/C(=N\O[C@H](C(=O)O)c4ccc(O)c(O)c4)c4csc(N)n4)[C@H]3SC2)cn1` [Compound I-2a, 7-[(Z)-2-(2-aminothiazol-4-yl)-2-(α-carboxy-3,4-dihydroxybenzyloxyimino)acetamido]-3-[(E)-3-(4-aminopyrimidinium-1-yl)-1-propen-1-yl]-3-cephem-4-carboxylate], which MIC [1] is on record?
A: 0.5 µg/mL (≈ 0.748 µM)

Q: And the MIC [2]?
A: 0.13 µg/mL (≈ 0.194 µM)

Q: And the MIC [3]?
A: 1 µg/mL

Q: What about the MIC (Enterobacter cloacae P99) of the same molecule?
A: 8 µg/mL (≈ 12 µM)

Q: What about the MIC (Escherichia coli 10536) of the same molecule?
A: 0.016 µg/mL (≈ 0.0239 µM)

Q: And the MIC (Escherichia coli 3190Y; 3190Y, 20 h)?
A: 0.063 µg/mL (≈ 0.0942 µM)

Q: And the MIC (Escherichia coli 851E)?
A: 0.063 µg/mL (≈ 0.0942 µM)

Q: And the MIC [4]?
A: 0.063 µg/mL (≈ 0.0942 µM)

Q: What about the MIC [5] of the same molecule?
A: 0.063 µg/mL (≈ 0.0942 µM)

Q: What about the MIC [6] of the same molecule?
A: 0.5 µg/mL (≈ 0.748 µM)

Q: What about the MIC [7] of the same molecule?
A: 0.031 µg/mL (≈ 0.0464 µM)

Q: What about the MIC [8] of the same molecule?
A: 1 µg/mL (≈ 1.5 µM)

Q: And the MIC [9]?
A: 0.13 µg/mL (≈ 0.194 µM)

Q: What about the MIC [10] of the same molecule?
A: 0.5 µg/mL (≈ 0.748 µM)

Q: And the MIC (Proteus vulgaris 6059A)?
A: 0.063 µg/mL (≈ 0.0942 µM)

Q: And the MIC [11]?
A: 0.25 µg/mL (≈ 0.374 µM)

Q: What about the MIC [12] of the same molecule?
A: 0.5 µg/mL (≈ 0.748 µM)

Q: And the MIC [13]?
A: 4 µg/mL (≈ 5.98 µM)

Q: And the MIC [14]?
A: 0.03 µg/mL (≈ 0.0449 µM)

Q: And the MIC [15]?
A: 0.5 µg/mL (≈ 0.748 µM)

Q: What about the MIC [16] of the same molecule?
A: 128 µg/mL (≈ 191 µM)

Q: What about the MIC [17] of the same molecule?
A: 0.5 µg/mL (≈ 0.748 µM)

Q: What about the MIC (Staphylococcus aureus 77) of the same molecule?
A: 4 µg/mL (≈ 5.98 µM)

Q: What about the MIC [18] of the same molecule?
A: 32 µg/mL (≈ 47.9 µM)

Q: And the MIC ([19]; 20 h)?
A: 0.25 µg/mL (≈ 0.374 µM)

Q: And the MIC [20]?
A: 4 µg/mL (≈ 5.98 µM)

Q: And the AUC [21]?
A: 53600 ng·h/mL

Q: What about the half-life [21] of the same molecule?
A: 55 min

Q: For `Cc1c(N)nc[n+](C/C=C/C2=C(C(=O)[O-])N3C(=O)[C@@H](NC(=O)/C(=N\O[C@H](C(=O)O)c4ccc(O)c(O)c4)c4csc(N)n4)[C@H]3SC2)c1N` [Compound I-4a, 7-[(Z)-2-(2-aminothiazol-4-yl)-2-(α-carboxy-3,4-dihydroxybenzyloxyimino)acetamido]-3-[(E)-3-(4,6-diamino-5-methylpyrimidinium-1-yl)-1-propen-1-yl]-3-cephem-4-carboxylate], which MIC [1] is on record?
A: 0.5 µg/mL (≈ 0.717 µM)

Q: What about the MIC [2] of the same molecule?
A: 0.13 µg/mL (≈ 0.186 µM)

Q: What about the MIC [3] of the same molecule?
A: 2 µg/mL

Q: What about the MIC (Enterobacter cloacae P99) of the same molecule?
A: 8 µg/mL (≈ 11.5 µM)

Q: And the MIC (Escherichia coli 10536)?
A: 0.008 µg/mL (≈ 0.0115 µM)

Q: And the MIC (Escherichia coli 3190Y; E. coli 3190Y, Muller-Hinton agar, 37° C., 20 hours)?
A: 0.063 µg/mL (≈ 0.0903 µM)

Q: What about the MIC (Escherichia coli 851E) of the same molecule?
A: 0.063 µg/mL (≈ 0.0903 µM)

Q: And the MIC [4]?
A: 0.063 µg/mL (≈ 0.0903 µM)

Q: And the MIC [5]?
A: 0.25 µg/mL (≈ 0.358 µM)

Q: And the MIC [6]?
A: 2 µg/mL (≈ 2.87 µM)

Q: And the MIC [7]?
A: 0.25 µg/mL (≈ 0.358 µM)

Q: What about the MIC [8] of the same molecule?
A: 2 µg/mL (≈ 2.87 µM)

Q: And the MIC [9]?
A: 0.063 µg/mL (≈ 0.0903 µM)

Q: What about the MIC [10] of the same molecule?
A: 0.13 µg/mL (≈ 0.186 µM)

Q: What about the MIC (Proteus vulgaris 6059A) of the same molecule?
A: 0.063 µg/mL (≈ 0.0903 µM)

Q: And the MIC [11]?
A: 0.5 µg/mL (≈ 0.717 µM)

Q: What about the MIC [12] of the same molecule?
A: 4 µg/mL (≈ 5.73 µM)

Q: What about the MIC [13] of the same molecule?
A: 1 µg/mL (≈ 1.43 µM)

Q: And the MIC [14]?
A: 0.016 µg/mL (≈ 0.0229 µM)

Q: What about the MIC [15] of the same molecule?
A: 0.25 µg/mL (≈ 0.358 µM)

Q: What about the MIC [16] of the same molecule?
A: 64 µg/mL (≈ 91.7 µM)

Q: What about the MIC [17] of the same molecule?
A: 0.5 µg/mL (≈ 0.717 µM)

Q: What about the MIC (Staphylococcus aureus 77) of the same molecule?
A: 2 µg/mL (≈ 2.87 µM)

Q: What about the MIC [18] of the same molecule?
A: 16 µg/mL (≈ 22.9 µM)

Q: What about the MIC ([19]; S. aureus giorgio, Muller-Hinton agar, 37° C., 20 hours) of the same molecule?
A: 0.25 µg/mL (≈ 0.358 µM)

Q: And the MIC [20]?
A: 4 µg/mL (≈ 5.73 µM)

Q: What about the AUC [21] of the same molecule?
A: 53100 ng·h/mL

Q: What about the half-life [21] of the same molecule?
A: 53 min
